Test results: BindingDB's records for patent US20230286943 (Sanofi, 2023)

Biological target: T1, Interleukin-17A (Homo sapiens, UniProt Q16552)
T1 sequence (Q16552 whole entry): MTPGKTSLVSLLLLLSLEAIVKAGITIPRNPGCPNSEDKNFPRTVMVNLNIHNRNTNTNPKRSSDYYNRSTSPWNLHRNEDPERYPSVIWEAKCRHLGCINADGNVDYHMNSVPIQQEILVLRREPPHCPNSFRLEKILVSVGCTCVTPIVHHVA
Test: AlphaLISA Assay
Procedure: The ability of the compounds to block binding of IL-17A to its receptor, IL-17RA, was analysed in a competition assay using AlphaLISA technology (Perkin Elmer). The assay is a bead based AlphaLISA where the IL-17RA is captured on the acceptor bead via an Fc tag and IL-17A is captured on the streptavidin donor bead via a biotinylated anti-IL-17A antibody.Assay buffer was prepared by adding 0.05% Tween-20 (v/v) and 0.1% BSA to Phosphate Buffered Saline (PBS). The assay was carried out in 384-well white low volume plates (Corning 4512). 10 μL of a 7.5 nM stock of human recombinant IL-17A (R&D Systems 7955-IL/CF) diluted in assay buffer was dispensed into the assay plate and compounds or DMSO vehicle control were added in a volume of 75 nL using a D300 dispenser (Hewlett Packard). The compounds were pre-incubated with the IL-17A for 24 h at room temperature (or for 30 min, where indicated by * in Table A below) prior to addition of 5 μL of a 5 nM stock of human recombinant IL-17RA/Fc chimera (R&D Systems 177-IR-100) diluted in assay buffer. […] The luminescence signal was measured using an Enspire plate reader (Perkin Elmer) with excitation at 680 nm and emission at 615 nm. Data were analysed using GraphPad Prism and fitted to a 4-parameter logistic equation.

Cc1nnc(C)n1-c1ccc(NC(=O)[C@@H](NC(=O)c2ccnn2C)C2CCCCCC2)nc1 [US20230286943, Example 62]
IC50: 794 nM
